SMILES strings stand for the structures. Where two headings read alike, the source gives them in different places.

For one series, the system named is Aβ production. The experiment in a line: Cellular Aβ IC50 determination (memapsin 2 activity in a cellular assay of Aβ production). In kind it is cell-based, Chinese hamster. As to conditions: Cricetulus griseus, read-out: M2 IC50. As to the method:
The potency of compounds against memapsin 2 activity was determined in a cellular assay of Aβ production. […] Chinese hamster ovary cells that over-express human APP695 with the London and Swedish mutations were seeded in multi-well plates at 10% confluency. Compounds are dissolved in DMSO to concentrations near 1 mM, and diluted into culture media to a final concentration near 4 μM (final 0.4% DMSO). Compounds were diluted serially and applied to cells in multi-well plates 48 h after seeding. Incubation was continued in 5% CO2 at 37° C. for 24 h. Aliquots were removed and assayed for […] content using a sandwich ELISA (BioSource International). Amount of Aβ40 over the range of concentration of compounds, relative to control incubations, were fit to a 4-parameter IC50 model.

The nature of series [1]: Determination of hepatic intrinsic clearance in liver microsomes. As to conditions: human liver microsomes, value in text. In kind it is in vitro ADME. The protocol:
To 500 μl of 200 mM Na^+K^+ phoshapte buffer (pH 7.4), 100 μl of 1 mM EDTA solution was added followed by 100 μl of 2 mg protein/ml human liver microsomes. A 10 μl aliquot of test compound (20 mM stock in 50% acetonitrile) was diluted further with 40 μl of H2O (total assay volume 750 μl. Assay mixture is incubated for 5 minutes at 37° C. The assay was initiated by addition of 250 μl of 4 mM NADPH solution. Incubation was continued at 37° C. Separate reaction mixtures were prepared for 0, 5, 10, 20, and 30 min durations. Individual reactions were halted by addition of 150 μl of 100% acetonitrile. Internal standard (10 μl of 100 ng/ml diazepam solution) was added. Concentration of the test compound in each separate reaction was measured using LC/MS/MS and a standard curve for the test compound according to standard procedures.
The hepatic intrinsic clearance in liver microsome was determined by the following procedure described by Davies and Morris (Davies, B. and Morris, T. (19930) Physiological parameters in laboratory animals and humans. Pharm Res. 10:1093-1095) detailing the relationship of in vitro clearance to physiological parameters in animals and human subjects. […]
where T is time (in minutes), from the relationship of relative amount vs. time. Alternatively, k1 was determined from a transform of the equation, where […]
(Liver microsomes are a subcellular fraction often used to study metabolism.)

Where [2] appears, read: Chinese hamster ovary cells over-expressing human APP695 with London and Swedish mutations, 24 h, Aβ40 sandwich ELISA.
The mark [3] stands for this setting: CHO cells over-expressing human APP695, Aβ40 ELISA.

Take `Cc1csc(CN(C)C(=O)c2cc(C(=O)N[C@@H](Cc3ccccc3)[C@H](O)[C@H]3CCCN3)cc(N(C)S(C)(=O)=O)c2)n1` [1-27, N1-((1R,2S)-1-hydroxy-3-phenyl-1-((R)-pyrrolidin-2-yl)propan-2-yl)-N3-methyl-5-(N-methylmethylsulfonamido)-N3-((4-methylthiazol-2-yl)methyl)isophthalamide]: the IC50 in the series with Aβ production (setting [2]) is below 500 nM.

As for `C[C@@H](NC(=O)c1cc(C(=O)N[C@@H](Cc2ccccc2)[C@H](O)[C@H]2CCCN2)cc(N(C)S(C)(=O)=O)c1)c1ccccc1` [1-11, N1-((1R,2S)-1-hydroxy-3-phenyl-1-((R)-pyrrolidin-2-yl)propan-2-yl)-5-(N-methylmethylsulfonamido)-N3-((R)-1-phenylethyl)isophthalamide], the half-inhibitory concentration (IC50) in the series with Aβ production (setting [2]) was below 500 nM. Consider `Cc1csc([C@H]2CCCN2C(=O)c2cc(C(=O)N[C@@H](Cc3ccccc3)[C@H](O)[C@H]3CCCN3)cc(N3CCC(F)(F)CC3)c2)n1` [1-46, 3-(4,4-difluoropiperidin-1-yl)-N-((1R,2S)-1-hydroxy-3-phenyl-1-((R)-pyrrolidin-2-yl)propan-2-yl)-5-((R)-2-(4-methylthiazol-2-yl)pyrrolidine-1-carbonyl)benzamide], for which, in the series with Aβ production (setting [2]), the IC50 was in the range of 500 to 1000 nM. On the same count and under the same terms, as for `Cc1coc([C@H]2CCCN2C(=O)c2cc(C(=O)N[C@@H](Cc3ccccc3)[C@H](O)[C@H]3CCCN3)cc(-c3ncco3)c2)n1` [1-17, N-((1R,2S)-1-hydroxy-3-phenyl-1-((R)-pyrrolidin-2-yl)propan-2-yl)-3-((R)-2-(4-methyloxazol-2-yl)pyrrolidine-1-carbonyl)-5-(oxazol-2-yl)benzamide], the figure is below 500 nM.

On to `Cc1coc([C@H]2CCCN2C(=O)c2cccc(C(=O)N[C@@H](Cc3ccccc3)[C@H](O)[C@H]3CCCN3)c2)n1` [1-4, N-((1R,2S)-1-hydroxy-3-phenyl-1-((R)-pyrrolidin-2-yl)propan-2-yl)-3-((R)-2-(4-methyloxazol-2-yl)pyrrolidine-1-carbonyl)benzamide], for which, in the series on Aβ production (setting [2]), the IC50 is above 1000 nM. Still for that read-out and setting: as for `Cc1csc([C@H]2CCCN2C(=O)c2cc(C(=O)N[C@@H](Cc3ccccc3)[C@H](O)[C@H]3CCCN3)cc(C(F)F)c2)n1` [1-14, 3-(difluoromethyl)-N-((1R,2S)-1-hydroxy-3-phenyl-1-((R)-pyrrolidin-2-yl)propan-2-yl)-5-((R)-2-(4-methylthiazol-2-yl)pyrrolidine-1-carbonyl)benzamide], the figure is below 500 nM. The same measure, in the same setting: with `C=C(C)c1cccc(CNC[C@@H](O)[C@H](Cc2ccccc2)NC(=O)c2cccc(C(=O)N3CCC[C@@H]3c3nc(C)co3)c2)c1` [2-6, N-((2S,3R)-3-hydroxy-1-phenyl-4-(3-(prop-1-en-2-yl)benzylamino)butan-2-yl)-3-((R)-2-(4-methyloxazol-2-yl)pyrrolidine-1-carbonyl)benzamide, reference compound] the figure was below 500 nM; with `Cc1csc(CN(C)C(=O)c2cccc(C(=O)N[C@@H](Cc3ccccc3)[C@H](O)[C@H]3CCCN3)c2)n1` [1-2, N1-((1R,2S)-1-hydroxy-3-phenyl-1-((R)-pyrrolidin-2-yl)propan-2-yl)-N3-methyl-N3-((4-methylthiazol-2-yl)methyl)isophthalamide], above 1000 nM. With `Cc1coc([C@H]2CCCN2C(=O)c2cccc(C(=O)N[C@@H](Cc3ccccc3)[C@H](O)[C@H]3C[C@@H](OCc4ccccc4)CN3)c2)n1` [1-18, N-((1R,2S)-1-((2R,4R)-4-(benzyloxy)pyrrolidin-2-yl)-1-hydroxy-3-phenylpropan-2-yl)-3-((R)-2-(4-methyloxazol-2-yl)pyrrolidine-1-carbonyl)benzamide], the “hepatic intrinsic clearance in liver microsomes (HLM CL)” value is “approximately 337 mL/min/kg” in series [1] (listed as N-(1R,2S)-1-((2R,4R)-4-(benzyloxy)pyrrolidin-2-yl)-1-hydroxy-3-phenylpropan-2-y) and 337 mL/min/kg in series [1] (listed as N-((1R,2S)-1-(2R,4R)-4-(benzyloxy)pyrrolidin-2-yl)-1-hydroxy-3-phenylpropan-2-yl). Moreover, the figures for the concentration for half-maximal inhibition (IC50) in the series on Aβ production (setting [3]) and with Aβ production (setting [2]) were 291 nM and below 500 nM, respectively. For `Cc1csc([C@H]2CCCN2C(=O)c2cc(C(=O)N[C@@H](Cc3ccccc3)[C@H](O)[C@H]3CCCN3)cc(N(C)S(C)(=O)=O)c2)n1` [1-23, N-((1R,2S)-1-hydroxy-3-phenyl-1-((R)-pyrrolidin-2-yl)propan-2-yl)-3-(N-methylmethylsulfonamido)-5-((R)-2-(4-methylthiazol-2-yl)pyrrolidine-1-carbonyl)benzamide], in the series on Aβ production (setting [2]), the IC50 was below 500 nM. Still for that read-out and setting: with `Cc1coc([C@H]2CCCN2C(=O)c2cc(CF)cc(C(=O)N[C@@H](Cc3ccccc3)[C@H](O)CNCc3cccc(C(C)(C)C)c3)c2)n1` [2-7, N-((2S,3R)-4-(3-tert-butylbenzylamino)-3-hydroxy-1-phenylbutan-2-yl)-3-(fluoromethyl)-5-((R)-2-(4-methyloxazol-2-yl)pyrrolidine-1-carbonyl)benzamide, reference compound] the figure was below 500 nM. Turning to `Cc1csc([C@H]2CCCN2C(=O)c2cc(C(=O)N[C@@H](Cc3ccccc3)[C@H](O)[C@H]3C[C@@H](OCc4ccccc4)CN3)cc(-n3cccc3)c2)n1` [1-25, N-((1R,2S)-1-((2R,4R)-4-(benzyloxy)pyrrolidin-2-yl)-1-hydroxy-3-phenylpropan-2-yl)-3-((R)-2-(4-methylthiazol-2-yl)pyrrolidine-1-carbonyl)-5-(1H-pyrrol-1-yl)benzamide], the IC50 is 55.6 nM in the series on Aβ production (setting [3]) and below 500 nM with Aβ production (setting [2]). Turning to `Cc1csc([C@H]2CCCN2C(=O)c2cccc(C(=O)N[C@@H](Cc3cc(F)cc(F)c3)[C@H](O)[C@H]3CCCN3)c2)n1` [1-44, N-((1R,2S)-3-(3,5-difluorophenyl)-1-hydroxy-1-((R)-pyrrolidin-2-yl)propan-2-yl)-3-((R)-2-(4-methylthiazol-2-yl)pyrrolidine-1-carbonyl)benzamide], the half-maximal inhibitory concentration (IC50) in the series on Aβ production (setting [2]) was 500 to 1000 nM.

Consider `Cc1csc([C@H]2CCCN2C(=O)c2cccc(C(=O)N[C@@H](Cc3ccccc3)[C@H](O)[C@@H]3CCCN3)c2)n1` [1-48, N-((1R,2S)-1-hydroxy-3-phenyl-1-((S)-pyrrolidin-2-yl)propan-2-yl)-3-((R)-2-(4-methylthiazol-2-yl)pyrrolidine-1-carbonyl)benzamide], for which, in the series with Aβ production (setting [2]), the IC50 was above 1000 nM. Still for that read-out and setting: with `Cc1coc([C@H]2CCCN2C(=O)c2cc(C(=O)N[C@@H](Cc3ccccc3)[C@H](O)[C@H]3CCCN3)cc(-c3ccccn3)c2)n1` [1-24, N-((1R,2S)-1-hydroxy-3-phenyl-1-((R)-pyrrolidin-2-yl)propan-2-yl)-3-((R)-2-(4-methyloxazol-2-yl)pyrrolidine-1-carbonyl)-5-(pyridin-2-yl)benzamide] the figure was below 500 nM; with `Cc1csc([C@H]2CCCN2C(=O)c2cc(C(=O)N[C@@H](Cc3ccccc3)[C@H](O)[C@H]3CCCN3)cc(-c3cnccn3)c2)n1` [1-20, N-((1R,2S)-1-hydroxy-3-phenyl-1-((R)-pyrrolidin-2-yl)propan-2-yl)-3-((R)-2-(4-methylthiazol-2-yl)pyrrolidine-1-carbonyl)-5-(pyrazin-2-yl)benzamide], below 500 nM. Turning to `Cc1csc(CN(C)C(=O)c2cccc(C(=O)N[C@@H](Cc3ccccc3)[C@H](O)[C@H]3C[C@@H](OCc4ccccc4)CN3)c2)n1` [1-9, N1-((1R,2S)-1-((2R,4R)-4-(benzyloxy)pyrrolidin-2-yl)-1-hydroxy-3-phenylpropan-2-yl)-N3-methyl-N3-((4-methylthiazol-2-yl)methyl)isophthalamide], the 50% inhibitory concentration (IC50) in the series with Aβ production (setting [2]) was below 500 nM.

Turning to `Cc1csc(CN(C)C(=O)c2cc(C(=O)N[C@@H](Cc3ccccc3)[C@H](O)[C@H]3CCCN3)cc(-c3ncco3)c2)n1` [1-15, N1-((1R,2S)-1-hydroxy-3-phenyl-1-((R)-pyrrolidin-2-yl)propan-2-yl)-N3-methyl-N3-((4-methylthiazol-2-yl)methyl)-5-(oxazol-2-yl)isophthalamide], the IC50 in the series on Aβ production (setting [2]) is below 500 nM. Regarding `Cc1coc([C@H]2CCCN2C(=O)c2cc(C(=O)N[C@@H](Cc3ccccc3)[C@H](O)[C@H]3CCCN3)cc(-c3cnccn3)c2)n1` [1-21, N-((1R,2S)-1-hydroxy-3-phenyl-1-((R)-pyrrolidin-2-yl)propan-2-yl)-3-((R)-2-(4-methyloxazol-2-yl)pyrrolidine-1-carbonyl)-5-(pyrazin-2-yl)benzamide], the concentration for half-maximal inhibition (IC50) in the series on Aβ production (setting [2]) is below 500 nM.

What is called IC50 is the concentration that gives 50% inhibition.

The values above are taken from patent publication US20130102593A1, “PYRROLIDINE COMPOUNDS WHICH INHIBIT BETA-SECRETASE ACTIVITY AND METHODS OF USE THEREOF” (priority 2008, published 2013).
